From US8927750B2, “Acyloxy- and phosphoryloxy-butadiene-Fe(CO)3 complexes as enzyme-triggered co-releasing molecules” (priority 2011, dated 2015)
Where two headings read alike, the source gives them in different places.

Experiments:
Type in all cases: biochemical
[1] = tested on: lipase from Candida rugosa; test: Carbon monoxide release (Mb-assay) with lipase from Candida rugosa; details: for carbon monoxide release with lipase from Candida rugosa: Mb solution, closed cell, 37° C.
Experimental: (§1) For this purpose, a solution of 30 mg Mb in 15 mL buffer was degassed by bubbling with argon for 10 min, then reduced by addition of an excess of Na2S2O4 and degassed again for 10 min. The concentration was determined by measuring a 1:10 diluted solution and using the following equation: A=ελ·c·l with ε408 nm=188000 L mol^−1 cm^−1
(§2) A stock solution of a complex in DMSO and a solution of the esterase in phosphate buffer were added under argon before the cell was closed to prevent re-oxidation of the Fe(II) in the Mb solution to Fe(III). […] Equivalents of the esterase are given relative to the inventive complex.
The Mb solution (c=88 μM) was reduced by the addition of 22 mg (126.4 μmol, 95 eq) of Na2S2O4 in 0.1 mL buffer. 3.4 mg (12 μmol) of rac-86 were dissolved in 300 μL of DMSO to provide a 0.041 M solution. For the measurement, 6 μL (2.45·10^−7 mol, 1.2 eq) of this solution were added to 2.3 mL of the Mb solution (2.03·10^−7 mol, 1 eq) and 70 μL (approximately 0.09 eq) of a solution of 5 mg lipase from Candida rugosa in 240 μL buffer.
The Mb solution (c=95 μM) was reduced by the addition of 23 mg (132.1 μmol, 92 eq) of Na2S2O4 in 0.1 mL buffer. 1.8 mg (5.6 μmol) of rac-87 were dissolved in 180 μL of DMSO to provide a 0.031 M solution. For the measurement, 12 μL (3.74·10^−7 mol, […]) of this solution were added to 2.3 mL of the Mb solution (2.19·10^−7 mol, 1 eq) and 140 μL (approximately 0.17 eq) of a solution of 15 mg lipase from Candida rugosa in 500 μL buffer.

pig liver esterase (PLE) [2] = test: Carbon monoxide release (Mb-assay) with pig liver esterase; details: Mb solution, closed cell, 37° C.
Experimental: as §1, §2
The Mb solution (c=76 μM) was reduced by the addition of 23 mg (132.1 μmol, 116 eq) of Na2S2O4 in 0.1 mL buffer. 1.7 mg (6.2 μmol) of rac-96 were dissolved in 160 μL of DMSO to provide a 0.038 M solution. For the measurement, 6 μL (2.29·10^−7 mol, 1.3 eq) of this solution were added to 2.3 mL of the Mb solution (1.75·10^−7 mol, 1 eq) and 70 μL (approximately 0.01 eq) of a solution of 0.7 mg pig liver esterase (PLE) in 240 μL buffer.
The Mb solution (c=56 μM) was reduced by the addition of 22 mg (126.4 μmol, 151 eq) of Na2S2O4 in 0.1 mL buffer. 1.1 mg (3.0 μmol) of rac-13 were dissolved in 100 μL of DMSO to provide a 0.030 M solution. For the measurement, 3 μL (9.06·10^−8 mol, 0.7 eq) of this solution were added to 2.3 mL of the Mb solution (1.28·10^−7 mol, 1 eq) and 70 μL (approximately 0.01 eq) of a solution of 0.6 mg PLE in 240 μL buffer.

[3] = tested on: horse skeletal myoglobin (Mb); test: Carbon monoxide release (Mb-assay) without esterase/lipase; details: for carbon monoxide release without esterase/lipase: Mb solution, closed cell, 37° C.; for carbon monoxide release without esterase/lipase after exposure to air: cell opened to air for 2 s
Experimental: as §1, §2
The Mb solution (c=93 μM) was reduced by the addition of 22 mg (126.4 μmol, 91 eq) of Na2S2O4 in 0.1 mL buffer. 0.7 mg (2.8 μmol) of 2-methoxycyclohexa-1,3-dienetricarbonyliron (0) were dissolved in 70 μL of DMSO to provide a 0.039 M solution. For the measurement, 6 μL (2.39·10^−7 mol, 1.3 eq) of this solution were added to 2.3 mL of the Mb solution (2.14·10^−7 mol, 1 eq).

pig liver esterase (PLE) [4] = tested on: pig liver esterase (PLE); set-up: key to cleaved by PLE: “+” indicates kinetic racemic resolution; “−” means that no reaction took place
[5] = tested on: lipase from Candida rugosa; set-up: key to cleaved by lipase from Candida rugosa: “+” indicates kinetic racemic resolution; “−” means that no reaction took place
[6] = tested on: lipase from Candida rugosa; details: open tube, 10 mg complex, 20 mg lipase
[7] = time 0 min, 12 mg complex, 15 mg enzyme
[8] = time 110 min, 12 mg complex, 15 mg enzyme

| SMILES | carbon monoxide release with lipase from Candida rugosa [1] | carbon monoxide release with pig liver esterase (pig liver esterase (PLE) [2]) | carbon monoxide release without esterase/lipase [3] | cleaved by PLE (pig liver esterase (PLE) [4]; General Procedure I) | cleaved by lipase from Candida rugosa ([5]; General Procedure I) | conversion (%) ([5]; time 0 min, 8 mg enzyme) | conversion (%) ([5]; time 30 min, 8 mg enzyme) | conversion (%) ([5]; time 60 min, 8 mg enzyme) | conversion (%) ([5]; time 110 min, 8 mg enzyme) | conversion (%) ([5]; time 240 min, 8 mg enzyme) | conversion (%) ([6]; time 0 min) | conversion (%) ([6]; time 15 min) | conversion (%) ([6]; time 30 min) | conversion (%) ([6]; time 60 min) | conversion (%) ([6]; time 110 min) | conversion (%) [5, 7] | conversion (%) [5, 8] | carbon monoxide release without esterase/lipase after exposure to air [3] | other results |
| --- | --- | --- | --- | --- | --- | --- | --- | --- | --- | --- | --- | --- | --- | --- | --- | --- | --- | --- | --- |
| CC(=O)OC1=CCCC=C1.[C-]#[O+].[C-]#[O+].[C-]#[O+].[Fe] [rac-86, (RS)-[η^4-Cyclohexa-1,5-dien-1-yl-tricarbonyliron(0)]acetate] | carbon monoxide release | carbon monoxide release | no carbon monoxide was released | − | + | 0/0% | 68% | 82% | 93% | 98% | 0/0% | 60% | 79% | 85% | 97% |  |  |  | conversion (%) ([5]; time 15 min, 8 mg enzyme): 32% |
| CC(=O)OC1=CC(C)(C)CC(OC(C)=O)=C1.[C-]#[O+].[C-]#[O+].[C-]#[O+].[Fe] [rac-13, reference compound] |  | carbon monoxide release | no significant amount of carbon monoxide was released | + | − |  |  |  |  |  |  |  |  |  |  |  |  |  | conversion (%) (pig liver esterase (PLE) [4]; time 15 min, 13 mg complex, 0.8 mg enzyme): 3%; conversion (%) (pig liver esterase (PLE) [4]; time 30 min, 13 mg complex, 0.8 mg enzyme): 12%; conversion (%) (pig liver esterase (PLE) [4]; time 45 min, 13 mg complex, 0.8 mg enzyme): 54%; conversion (%) (pig liver esterase (PLE) [4]; time 150 min, 13 mg complex, 0.8 mg enzyme): 64%; conversion (%) (pig liver esterase (PLE) [4]; time 210 min, 13 mg complex, 0.8 mg enzyme): 80% |
| CC(=O)OC1=CC=CCC1.[C-]#[O+].[C-]#[O+].[C-]#[O+].[Fe] [rac-96, (RS)-[θ^4-Cyclohexa-1,3-dien-1-yl-tricarbonyliron(0)]acetate] |  | carbon monoxide release | no carbon monoxide release | + | + |  |  |  |  |  | 0/0% | 65% | 77% | 79% | 81% | 0/0% | 83% |  | conversion (%) (pig liver esterase (PLE) [4]; time 0 min, 10 mg complex, 1 mg enzyme): 0%; conversion (%) (pig liver esterase (PLE) [4]; time 120 min, 10 mg complex, 1 mg enzyme): 28%; conversion (%) (pig liver esterase (PLE) [4]; time 180 min, 10 mg complex, 1 mg enzyme): 45%; conversion (%) (pig liver esterase (PLE) [4]; time 300 min, 10 mg complex, 1 mg enzyme): 52%; conversion (%) (pig liver esterase (PLE) [4]; time 420 min, 10 mg complex, 1 mg enzyme): 77%; conversion (%) (pig liver esterase (PLE) [4]; time 540 min, 10 mg complex, 1 mg enzyme): 84%; conversion (%) (pig liver esterase (PLE) [4]; time 660 min, 10 mg complex, 1 mg enzyme): 89%; conversion (%) ([5]; time 15 min, 12 mg complex, 15 mg enzyme): 43%; conversion (%) ([5]; time 30 min, 12 mg complex, 15 mg enzyme): 57%; conversion (%) ([5]; time 60 min, 12 mg complex, 15 mg enzyme): 76% |
| COC1=CCCC=C1.O=[C]=[Fe](=[C]=O)=[C]=O [2-methoxycyclohexa-1,3-dienetricarbonyliron (0), reference compound] |  |  | no carbon monoxide release | − | − |  |  |  |  |  |  |  |  |  |  |  |  | no carbon monoxide was released | reaction with PLE (pig liver esterase (PLE) [4]; General Procedure I): did not react; reaction with lipase from Candida rugosa ([5]; General Procedure I): did not react |
| CC(C)(C)C(=O)OC1=CCCC=C1.[C-]#[O+].[C-]#[O+].[C-]#[O+].[Fe] [rac-87, (RS)-[η^4-Cyclohexa-1,5-dien-1-yl-tricarbonyliron(0)] pivalate] | no carbon monoxide release |  |  | − | + | 0/0% | 4% | 6% | 8% | 12% |  |  |  |  |  | 0/0% | 47% | no carbon monoxide was released | carbon monoxide release with lipase from Candida rugosa after exposure to air ([1]; cell opened to air for 2 s after 360 min, conversion of Mb-O2 to MbCO): carbon monoxide release; conversion (%) ([5]; time 240 min, 12 mg complex, 15 mg enzyme): 60%; conversion (%) ([5]; time 24 h, 8 mg enzyme): 47%; conversion (%) ([5]; time 24 h, 12 mg complex, 15 mg enzyme): 73% |
